Key:
[1] = test system: hippocampal kindled seizures; details: background statement; cited from earlier work
[2] = test system: amygdala kindled seizures; details: i.p., cited from earlier work
[3] = test system: LTG-resistant amygdala kindled seizures; details: 5 mg/kg, i.p., q.d.; cited from earlier work
[4] = test system: hippocampal kindled seizures; experiment: Rat Hippocampal Kindling Model (Interruption of Kindled State); assay type: in vivo; details: for ED50: Rattus norvegicus, ip, read-out: ED50 = median therapeutic dose; for After-Discharge Duration (% of control) / Mean Seizure Score: i.p., line of the ED50 dose; for effect on seizure activity: reference drugs
Procedure: In the present rapid hippocampal kindling model adult male Sprague-Dawley rats (300-400 g) were surgically implanted with bipolar electrodes placed in the hippocampus. […] One week later, the rats received 2-3 supra-threshold stimulations delivered every 30 min before compound treatment to ensure stability of the behavioral seizure stage and after-discharge duration. Fifteen minutes after the last stimulation, a single dose of vehicle or test compound was administered i.p (intraperitoneally). After 15 min, each rat was then stimulated every 30 min for 3 to 4 h. After each stimulation, individual seizure scores and after-discharge durations were recorded. The group mean±SEM were calculated for each parameter. Eight rats per dose and a minimum of four doses were used to establish an ED50 value. Efficacy was measured as the ability of a compound to modify the seizure score (severity of spread) and after-discharge duration (ADD; excitability) of the generalized seizures.
Thus, according to the theories presented in current literature (Ghaemi, S. N., Boiman, E. E., and Goodwin, F. K., Soc. of Bio. Psychiatry, (1999), vol. 45, pp 137-144; Stoll, A. L., and Severus, W. E., Harvard Rev. Psychiatry, July/August (1996), Vol. 4, No. 2, pp 77-89) a decrease in seizure score and/or ADD may also be predictive of the ability of a test compound to treat the cycling associated with bipolar disorder.

[5] = Median toxic dose (TD50), i.p., listed with the Rat Hippocampal Kindling Test; details: Sprague-Dawley, in vivo, ip, Table 4 dose column
[6] = test system: LTG-resistant amygdala kindled seizures; experiment: Lamotrigine Resistant Amygdala Kindled Rat Model (Interruption of Kindled State); assay type: in vivo; details: 100 mg/kg, i.p.
Procedure: Amygdala kindling is less severe than hippocampal kindling, such that many AEDs are effective against amygdala kindled seizures, but are ineffective against hippocampal kindled seizures.
In the LTG-resistant amygdala kindling model, rats were dosed with LTG (5 mg/kg, i.p., q.d.) during the acquisition phase of kindling. […] Once kindled (supra-threshold stimulation of 150 μA biphasic 60 Hz current pulse for 1 second; ˜2 weeks), rats were re-challenged with a high dose of LTG (45 mg/kg, i.p.) one week later to insure resistance. After a 3-4 day wash out period, rats received 2-3 supra-threshold stimulations delivered every 30 min before compound treatment to ensure stability of the behavioral seizure stage and after-discharge duration. Fifteen minutes after the last stimulation, a single dose of vehicle or test compound was administered i.p. After 15 min, each rat was then stimulated every 30 min for 3 to 4 h. After each stimulation, individual seizure scores and after-discharge durations were recorded. The group mean±SEM was calculated for each parameter.

dominant rats = experiment: Dominant-Submissive assay: Reduction of Dominant Behavior Model (RDBM); assay type: in vivo, rat; details: for treatment time after which dominant behavior was significantly reduced: historical data, FIG. 2, i.p.: lithium 100 mg/kg, carbamazepine 20 mg/kg, VPA 30 mg/kg
Procedure: Dominance and submissiveness, defined in a competition test and measured as the relative success of two food-restricted rats to gain access to a feeder, form a behavioral paradigm—the Dominant Submissive Relationship (DSR). This paradigm results in two models which are predictive of ability of test compounds (drugs) to treat mood disorders.
Test compounds are evaluated for either their ability to inhibit the dominant behavior of rats taking food at the expense of an opponent (reduction of dominant behavior model or RDBM) and thus their potential as treatments for mania; or for their ability to increase the competitive behavior of submissive rats losing such encounters (reduction of submissive behavior model or RSBM) and thus their potential as treatments for depression; (Malatynska, E., and Knapp, R. J., Neuroscience and Biobehavioral Review, 29 (2005) 715-737).
The Reduction of Dominant Behavior Model (RDBM) test, wherein the dominant animals are treated with test compound, is predictive of the ability of the test compound to treat mani. This model was applied to Compound #1 of the present invention, according to the following procedure.
(§1) Male Sprague Dawley rats (140 to 160 g) from Charles River Laboratories Wilmington, Mass. were used in this assay. Shipments of rats were received at two-week intervals. Each shipment went through five-day quarantine, one-week acclimation period, and one-week selection process, followed by five-weeks of drug or vehicle treatment to those pairs selected.
(§2) Rats were housed four per cage. Access to food was restricted to one hour per day after testing on Monday through Thursday. After testing on Friday, rats had free access to food until being fasted again on Sunday. At no time were the rats deprived of water. The food deprivation periods used had little effect on weight gain as the average weight of rats was about 300 g at the end of the study. At the conclusion of experiment rats were sacrificed by decapitation, the trunk blood and brains were collected for in vitro experiments and drug concentration measurements.
(§3) The basic testing apparatus consisted of two chambers connected with a tunnel only large enough to allow one rat to pass through at a time. On the floor, at the mid-point of the tunnel was a container of sweetened milk. […] During the five-minute daily sessions, time spent in the feeder zone by each rat was recorded by the video tracking software and saved into a text file.
(§4) The test began with a random assignment of rats into pairs. […] The time spent in the feeder zone by each animal was recorded. […] Finally, there must have been no “reversals” during the pair selection week where the putative submissive rat out-scored its dominant partner on isolated occasions. […]

[7] = test system: amygdala kindled seizures; experiment: Amygdala Kindling Assay (Kindling Prevention); assay type: in vivo, rat
submissive rats = experiment: Dominant-Submissive assay: Reduction of Submissive Behavior Model (RSBM); assay type: in vivo, rat
Procedure: The Reduction of Submissive Behavior Model (RSBM) test, wherein the submissive animals are treated with test compound, is predictive of the ability of the test compound to treat depression. This model was applied to Compound #1 of the present invention, according to the following procedure.
as §1, §2, §3, §4
Significant differences between time spent on the feeder by dominant and submissive rats were determined by ANOVA using GraphPad Prism software (GraphPad Software, Inc. San Diego, Calif.) followed by a two-tailed t-test (P<0.05). […]

Nc1nnc(-c2cccc(Cl)c2Cl)c(N)n1 [LTG, lamotrigine]
protection against hippocampal kindled seizures [1]: unable to protect against hippocampal kindled seizures | ED50, amygdala kindled seizures ([2]; Cl=4-50 mg/kg): 25 mg/kg | ADD reduced by [2]: 62% | amygdala kindled seizure score [2]: ~2 | effect on kindling during acquisition phase [3]: no effect on kindling itself

CCC1(C)CC(=O)NC1=O (centres unmarked) [Ethosuximide]
ED50 [4]: 250 mg/kg | After-Discharge Duration (% of control) [4]: 78 ± 13% of control | Mean Seizure Score [4]: 5 ± 0 | effect on seizure activity [4]: ineffective | TD50 [5]: 189 mg/kg

NS(=O)(=O)NCc1csc2ccccc12 [Compound #1, N-(benzo[b]thien-3-ylmethyl)-sulfamide]
rats protected ([6]; n=11): Five out of eleven | seizure score after treatment ([6]; reduced from a 5): 3.1 | treatment time after which reduction of dominant behavior was statistically significant (dominant rats; 1.25 mg/kg p.o. BID, p<0.05): 2 weeks | reduction of dominant behavior (dominance level) (dominant rats; p.o. BID 1.25, 6, 30, 60 mg/kg, FIG. 1): reduced dominant behavior in a dose-dependent manner | seizure score at the conclusion of the drug- and stimulus-free period versus vehicle ([7]; 100 mg/kg i.p. during acquisition, re-challenged in the absence of drug): remained significantly lower | acquisition of the fully generalized kindled seizure ([7]; 100 mg/kg i.p., FIG. 4): prevented the acquisition of the fully generalized kindled seizure | treatment time after which reduction of submissive behavior was statistically significant (submissive rats; 30 mg/kg p.o. twice a day, p<0.05): 5 weeks | treatment time after which reduction of submissive behavior was statistically significant (submissive rats; 60 mg/kg p.o. twice a day, p<0.01): 17 days | reduction of submissive behavior (antidepressant) (submissive rats; p.o. twice a day for 5 weeks, 6, 30, 60 mg/kg): reduced submissive behavior (antidepressant) in a dose-dependent manner | TD50 [5]: 100 mg/kg

CCCC(CCC)C(=O)O [Valproic acid]
ED50 [4]: 350 mg/kg | After-Discharge Duration (% of control) [4]: 3 ± 1.4% of control | Mean Seizure Score [4]: 0.3 ± 0.3 | dose giving protection similar to Compound #1 (toxic doses) ([4]; rat, in vivo): > 300 mg/kg | effect on seizure activity [4]: suppressed seizure activity, but at doses associated with toxicity | TD50 [5]: 316 mg/kg

O=C1NC(=O)C(c2ccccc2)(c2ccccc2)N1 [Phenytoin]
ED50 [4]: 150 mg/kg | After-Discharge Duration (% of control) [4]: 209 ± 43% of control | Mean Seizure Score [4]: 4.3 ± 0.3 | effect on seizure activity [4]: suppressed seizure activity, but at doses associated with toxicity | TD50 [5]: 15 mg/kg

CCCC(CCC)C(=O)[O-].[Na+] [VPA, sodium valproate]
treatment time after which dominant behavior was significantly reduced (dominant rats): 1 weeks

NC(=O)N1c2ccccc2C=Cc2ccccc21 [Carbamazepine, carbamazepine]
treatment time after which dominant behavior was significantly reduced (dominant rats): 3 weeks | ED50 [4]: 50 mg/kg | After-Discharge Duration (% of control) [4]: 72 ± 13% of control | Mean Seizure Score [4]: 2.3 ± 0.6 | effect on seizure activity [4]: suppressed seizure activity, but at doses associated with toxicity | TD50 [5]: 26 mg/kg
